In ChEMBL document CHEMBL1151628, “Antibacterial constituents of the diatom Navicula delognei” (1984):
Active and inactive are the calls of the source. No cut-off for these calls is given here.

Legend:
[1] = system: Proteus vulgaris; experiment: Antimicrobial activity against Proteus vulgaris ATCC 13315 at 0.1 mg/disk by disk diffusion assay; format: functional
[2] = system: Klebsiella pneumoniae; experiment: Antimicrobial activity against Klebsiella pneumoniae ATCC 13883 at 0.1 mg/disk by disk diffusion assay; format: functional
[3] = system: Staphylococcus epidermidis; experiment: Antimicrobial activity against Staphylococcus epidermidis ATCC 12228 at 0.5 mg/disk by disk diffusion assay; format: functional
[4] = system: Salmonella typhimurium; experiment: Antimicrobial activity against Salmonella Typhimurium ATCC 14028 at 0.5 mg/disk by disk diffusion assay; format: functional, Salmonella enterica subsp. enterica serovar Typhimurium
[5] = system: Proteus vulgaris; experiment: Antimicrobial activity against Proteus vulgaris ATCC 13315 at 0.5 mg/disk by disk diffusion assay; format: functional
[6] = system: Staphylococcus aureus; experiment: Antimicrobial activity against Staphylococcus aureus ATCC 25923 at 0.5 mg/disk by disk diffusion assay; format: functional
[7] = system: Escherichia coli; experiment: Antimicrobial activity against Escherichia coli ATCC 25922 at 0.5 mg/disk by disk diffusion assay; format: functional, organism-based
[8] = system: Serratia marcescens; experiment: Antimicrobial activity against Serratia marcescens ATCC 8100 at 0.1 mg/disk by disk diffusion assay; format: functional
[9] = system: Salmonella typhimurium; experiment: Antimicrobial activity against Salmonella Typhimurium ATCC 14028 at 0.1 mg/disk by disk diffusion assay; format: functional, Salmonella enterica subsp. enterica serovar Typhimurium
[10] = system: Staphylococcus aureus; experiment: Antimicrobial activity against Staphylococcus aureus ATCC 25923 at 0.1 mg/disk by disk diffusion assay; format: functional
[11] = system: Enterobacter cloacae; experiment: Antimicrobial activity against Enterobacter cloacae ATCC 23355 at 0.1 mg/disk by disk diffusion assay; format: functional
[12] = system: Staphylococcus epidermidis; experiment: Antimicrobial activity against Staphylococcus epidermidis ATCC 12228 at 0.1 mg/disk by disk diffusion assay; format: functional

With `CN(C)[C@@H]1C(O)=C(C(N)=O)C(=O)[C@@]2(O)C(O)=C3C(=O)c4c(O)cccc4[C@@](C)(O)[C@H]3C[C@@H]12` [TETRACYCLINE] the “inhibition zone (IZ)” value [1] was greater than 4 mm and the “inhibition zone (IZ)” value [2] was greater than 4 mm.

In the case of `CC/C=C\C/C=C\C/C=C\C/C=C\CCCCC(=O)O`, the “inhibition zone (IZ)” value [3] was greater than 2 mm, the “inhibition zone (IZ)” value [4] was greater than 2 mm and the “inhibition zone (IZ)” value [5] was greater than 2 mm. For the same compound, the “inhibition zone (IZ)” value [6] was greater than 2 mm and the Activity [7] was “Active”.

`CC/C=C\C/C=C\C/C=C\C/C=C\C/C=C\CCCC(=O)OC/C=C(\C)CCCC(C)CCCC(C)CCCC(C)C` (stereo unspecified) was tested, and the “inhibition zone (IZ)” value [3] was greater than 2 mm, the “inhibition zone (IZ)” value [4] was greater than 2 mm and the Activity [5] was “Active”. For the same compound, the “inhibition zone (IZ)” value [6] was greater than 4 mm.

In the case of `O=C(N[C@H](CO)[C@H](O)c1ccc([N+](=O)[O-])cc1)C(Cl)Cl` [CHLORAMPHENICOL], the “inhibition zone (IZ)” value [8] was greater than 4 mm.

With `CC1(C)S[C@@H]2[C@H](NC(=O)[C@H](N)c3ccccc3)C(=O)N2[C@H]1C(=O)O` [AMPICILLIN] the “inhibition zone (IZ)” value [9] was greater than 4 mm, the “inhibition zone (IZ)” value [10] was greater than 4 mm and the “inhibition zone (IZ)” value [11] was greater than 4 mm. The “inhibition zone (IZ)” value [12] was greater than 4 mm.

With `C=CC/C=C\C/C=C\C/C=C\CCCCC(=O)O` the “inhibition zone (IZ)” value [3] was greater than 2 mm, the “inhibition zone (IZ)” value [4] was greater than 4 mm and the Activity [5] was “Active”. For the same compound, the “inhibition zone (IZ)” value [6] was greater than 2 mm and the Activity [7] was “Active”.
